Test results from publication PMC10329608, “Investigation of the structure-activity relationship at the N-terminal part of minigastrin analogs” (EJNMMI Research, 2023).
“Also recorded” adds a separate entry of the source. Read-outs that look alike come from different tables or passages of the source. Starred links: 1 amine or outer side, 2 acyl side, 3 side chain; linkers in the order of their positions; H or OH if unused. Non-standard residues stand in square brackets, D forms with d. Residues, ends and D or L forms follow the SMILES beside them. *: point of attachment. DOTA = O=C(O)CN1CCN(CC(=O)O)CCN(CC(=O)*)CCN(CC(=O)O)CC1; d(γGlu) = O=C(O)[C@@H](CCC(=O)[*:2])N[*:1]; 1Nal = N[C@@H](Cc1cccc2ccccc12)C(=O)O; 2Nal = N[C@@H](Cc1ccc2ccccc2c1)C(=O)O; PEG5 = NCCOCCOCCOCCOCCOCCC(=O)O; NMeNle = CCCC[C@H](NC)C(=O)O; PEG4 = NCCOCCOCCOCCOCCC(=O)O; Nle = CCCC[C@H](N)C(=O)O

Columns and labels:
CCK-2R = biological target: T1, CCK-2R (Rattus norvegicus, UniProt P30553); experiment: Competitive binding (IC50) on AR42J cells against [177Lu]Lu-DOTA-PP-F11N; conditions: for fold elevated IC50 value versus N-methylated tetrapeptides: B1 versus B3, B5 and B7 versus B3, B4 and B6; for IC50 / CCK-2R affinity (in words): AR42J cells; for IC50: 3 h; for CCK-2R affinity (in words): tetrapeptides
T1 construct: endogenous in cells; host or cells: AR42J cells
T1 sequence (P30553 1-452): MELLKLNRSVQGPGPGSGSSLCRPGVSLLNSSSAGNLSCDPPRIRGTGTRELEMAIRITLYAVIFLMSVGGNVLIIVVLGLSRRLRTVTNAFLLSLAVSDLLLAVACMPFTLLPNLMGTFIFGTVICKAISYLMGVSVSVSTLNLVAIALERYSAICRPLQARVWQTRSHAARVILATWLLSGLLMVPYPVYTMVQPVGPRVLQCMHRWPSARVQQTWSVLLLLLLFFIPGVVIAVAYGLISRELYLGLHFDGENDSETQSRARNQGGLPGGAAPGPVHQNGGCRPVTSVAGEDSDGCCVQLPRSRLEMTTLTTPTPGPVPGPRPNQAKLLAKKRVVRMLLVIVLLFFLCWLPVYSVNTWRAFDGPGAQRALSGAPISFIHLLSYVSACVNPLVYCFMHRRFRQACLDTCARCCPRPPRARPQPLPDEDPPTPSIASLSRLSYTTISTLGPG
Description: IC50 values of all compounds were determined according to a previously published procedure. In brief, competitive binding studies were performed via co-incubation of increasing concentrations of the peptide of interest (10^−10 to 10^–4 M, in triplicate) together with the reference compound [^177Lu]Lu-DOTA-PP-F11N (0.3 pmol/well) on AR42J cells (2 × 10^5 cells per 1 mL/well) at 37 °C for 3 h. Table S1. CCK-2R affinity and lipophilicity data of the compounds evaluated. Affinity data were determined on AR42J cells (2.0 x 10^5 cells/well/mL) and [^177Lu]Lu-DOTA-PP-F11N (0.3 pmol/well) as radiolabeled reference (3 h, 37°C, RPMI 1640, 5 mM L-Gln, 5 mL non-essential amino acids (100x), 10% FCS + 5% BSA (v/v)).

[1] = format: physicochemical; conditions: pH 7.4
Description: Lipophilicity (depicted as n-octanol-phosphate-buffered saline solution (PBS, pH = 7.4) distribution coefficient, logD7.4) of ^177Lu-labeled minigastrin analogs was evaluated as previously published.

[2] = 2.0 x 10^5 cells/well/mL, [177Lu]Lu-DOTA-PP-F11N 0.3 pmol/well as reference, 37°C, natLu-labeled DOTA peptides, tetrapeptides unlabeled, read-out: IC50
[3] = [177Lu]Lu-DOTA-PP-F11N as reference, 37 °C, values in text, read-out: IC50 (CCK-2R affinity)

With `CCCC[C@@H](C(=O)N[C@@H](CC(=O)O)C(=O)N[C@@H](Cc1c[nH]c2ccccc12)C(N)=O)N(C)C(=O)[C@@H](N)Cc1c[nH]c2ccccc12` [B7, H-Trp-(N-Me)Nle-Asp-Trp-NH2] (H-W[NMeNle]DW-NH2) the “fold elevated IC50 value versus N-methylated tetrapeptides” value (CCK-2R) was 3.5- to 19 fold.

With `CCCC[C@@H](C(=O)N[C@@H](CC(=O)O)C(=O)N[C@@H](Cc1cccc2ccccc12)C(N)=O)N(C)C(=O)[C@H](Cc1c[nH]c2ccccc12)NC(=O)CNC(=O)[C@H](Cc1ccc(O)cc1)NC(=O)CNC(=O)CC[C@@H](NC(=O)CN1CCN(CC(=O)O)CCN(CC(=O)O)CCN(CC(=O)O)CC1)C(=O)O` [[^nat/177Lu]Lu-DOTA-CCK-60, metal not drawn] ({DOTA-d(γGlu)}-GYGW[NMeNle]D[1Nal]-NH2) the logD [1] was -2.63 ± 0.05 and the logD7.4 [1] was “‒2.7 to ‒2.1”.

For `CCCC[C@@H](C(=O)N[C@@H](CC(=O)O)C(=O)N[C@@H](Cc1cccc2ccccc12)C(N)=O)N(C)C(=O)[C@H](Cc1c[nH]c2ccccc12)NC(=O)CNC(=O)CNC(=O)[C@H](C)NC(=O)CC[C@@H](NC(=O)CN1CCN(CC(=O)O)CCN(CC(=O)O)CCN(CC(=O)O)CC1)C(=O)O` [[^nat/177Lu]Lu-DOTA-CCK-61, metal not drawn] ({DOTA-d(γGlu)}-AGGW[NMeNle]D[1Nal]-NH2), the logD [1] was -2.56 ± 0.09 and the logD7.4 [1] was “‒2.7 to ‒2.1”.

In the case of `CCCC[C@@H](C(=O)N[C@@H](CC(=O)O)C(=O)N[C@@H](Cc1cccc2ccccc12)C(N)=O)N(C)C(=O)[C@H](Cc1c[nH]c2ccccc12)NC(=O)CNC(=O)[C@H](Cc1ccc(O)cc1)NC(=O)[C@H](C)NC(=O)CC[C@@H](NC(=O)CN1CCN(CC(=O)O)CCN(CC(=O)O)CCN(CC(=O)O)CC1)C(=O)O` [[^nat/177Lu]Lu-DOTA-γ-MGS5, DOTA-D-γ-Glu-Ala-Tyr-Gly-Trp-(N-Me)Nle-Asp-1-Nal-NH2, metal not drawn, reference compound] ({DOTA-d(γGlu)}-AYGW[NMeNle]D[1Nal]-NH2), the logD [1] is reported as -2.24 ± 0.04 and the logD7.4 [1] is reported as “− 2.24 ± 0.04”.

In the case of `CCCC[C@@H](C(=O)N[C@@H](CC(=O)O)C(=O)N[C@@H](Cc1cccc2ccccc12)C(N)=O)N(C)C(=O)[C@H](Cc1c[nH]c2ccccc12)NC(=O)CNC(=O)CNC(=O)[C@H](C)NC(=O)CNC(=O)CN1CCN(CC(=O)O)CCN(CC(=O)O)CCN(CC(=O)O)CC1` [[^nat/177Lu]Lu-DOTA-CCK-57, metal not drawn] ({DOTA}-GAGGW[NMeNle]D[1Nal]-NH2), the IC50 (CCK-2R; [2]) is reported as 9.67 ± 1.74 nM, the logD [1] is reported as -1.94 ± 0.06 and the logD7.4 [1] is reported as “− 1.9 to − 1.2”.

For `CCCC[C@@H](C(=O)N[C@@H](CC(=O)O)C(=O)N[C@@H](Cc1cccc2ccccc12)C(N)=O)N(C)C(=O)[C@H](Cc1c[nH]c2ccccc12)NC(=O)CNC(=O)CNC(=O)CNC(=O)CC[C@@H](NC(=O)CN1CCN(CC(=O)O)CCN(CC(=O)O)CCN(CC(=O)O)CC1)C(=O)O` [[^nat/177Lu]Lu-DOTA-CCK-58, metal not drawn] ({DOTA-d(γGlu)}-GGGW[NMeNle]D[1Nal]-NH2), the logD [1] was -2.66 ± 0.06 and the logD7.4 [1] was “‒2.7 to ‒2.1”.

With `CCCC[C@@H](C(=O)N[C@@H](CC(=O)O)C(=O)N[C@@H](Cc1cccc2ccccc12)C(N)=O)N(C)C(=O)[C@H](Cc1c[nH]c2ccccc12)NC(=O)CNC(=O)CN1CCN(CC(=O)O)CCN(CC(=O)O)CCN(CC(=O)O)CC1` [[^nat/177Lu]Lu-DOTA-CCK-62, DOTA-Gly-Trp-(N-Me)Nle-Asp-1-Nal-NH2, metal not drawn] ({DOTA}-GW[NMeNle]D[1Nal]-NH2) the logD [1] was -1.34 ± 0.08 and the logD7.4 [1] was “− 1.9 to − 1.2”.

With `CCCC[C@@H](C(=O)N[C@@H](CC(=O)O)C(=O)N[C@@H](Cc1ccccc1)C(N)=O)N(C)C(=O)[C@@H](N)Cc1c[nH]c2ccccc12` [B4, H-Trp-(N-Me)Nle-Asp-Phe-NH2] (H-W[NMeNle]DF-NH2) the “CCK-2R affinity (in words)” value (CCK-2R) was “CCK-2R affinities in the low nanomolar range”.

`CCCC[C@@H](C(=O)N[C@@H](CC(=O)O)C(=O)N[C@@H](Cc1cccc2ccccc12)C(N)=O)N(C)C(=O)[C@H](Cc1c[nH]c2ccccc12)NC(=O)CCOCCOCCOCCOCCOCCNC(=O)CN1CCN(CC(=O)O)CCN(CC(=O)O)CCN(CC(=O)O)CC1` [[^nat/177Lu]Lu-DOTA-CCK-63, metal not drawn] ({DOTA-PEG5}-W[NMeNle]D[1Nal]-NH2) showed an IC50 (CCK-2R; [3]) of 8.8 ± 1.3 nM and a logD [1] of -2.13 ± 0.05.

For `CCCC[C@H](NC(=O)[C@@H](N)Cc1c[nH]c2ccccc12)C(=O)N[C@@H](CC(=O)O)C(=O)N[C@@H](Cc1cccc2ccccc12)C(N)=O` [B1, H-Trp-Nle-Asp-1-Nal-NH2] (H-W[Nle]D[1Nal]-NH2), the IC50 (CCK-2R; [2]) was 297 ± 15 nM, the “fold elevated IC50 value versus N-methylated tetrapeptides” value (CCK-2R) was 50 fold and the “CCK-2R affinity (in words)” value (CCK-2R) was “significant loss in CCK-2R affinity; also recorded: low CCK-2R affinity”.

Work on `CCCC[C@@H](C(=O)N[C@@H](CC(=O)O)C(=O)N[C@@H](Cc1cccc2ccccc12)C(N)=O)N(C)C(=O)[C@H](Cc1c[nH]c2ccccc12)NC(=O)CCOCCOCCOCCOCCNC(=O)CN1CCN(CC(=O)O)CCN(CC(=O)O)CCN(CC(=O)O)CC1` [[^nat/177Lu]Lu-DOTA-CCK-64, metal not drawn] ({DOTA-PEG4}-W[NMeNle]D[1Nal]-NH2) yielded an IC50 (CCK-2R; [2]) of 7.64 ± 0.86 nM, an IC50 (CCK-2R; [3]) of 7.6 ± 0.9 nM and a logD [1] of -2.21 ± 0.07.

For `CCCC[C@@H](C(=O)N[C@@H](CC(=O)O)C(=O)N[C@@H](Cc1cccc2ccccc12)C(N)=O)N(C)C(=O)[C@H](Cc1c[nH]c2ccccc12)NC(=O)CNC(=O)CNC(=O)CNC(=O)CNC(=O)CN1CCN(CC(=O)O)CCN(CC(=O)O)CCN(CC(=O)O)CC1` [[^nat/177Lu]Lu-DOTA-CCK-55, metal not drawn] ({DOTA}-GGGGW[NMeNle]D[1Nal]-NH2), the logD [1] was -2.09 ± 0.07 and the logD7.4 [1] was “‒2.7 to ‒2.1”.

For `CCCC[C@@H](C(=O)N[C@@H](CC(=O)O)C(=O)N[C@@H](Cc1cccc2ccccc12)C(N)=O)N(C)C(=O)[C@H](Cc1c[nH]c2ccccc12)NC(=O)CNC(=O)[C@H](Cc1ccc(O)cc1)NC(=O)CNC(=O)CNC(=O)CN1CCN(CC(=O)O)CCN(CC(=O)O)CCN(CC(=O)O)CC1` [[^nat/177Lu]Lu-DOTA-CCK-56, metal not drawn] ({DOTA}-GGYGW[NMeNle]D[1Nal]-NH2), the logD [1] was -1.38 ± 0.07 and the logD7.4 [1] was “− 1.9 to − 1.2”.

For `CCCC[C@@H](C(=O)N[C@@H](CC(=O)O)C(=O)N[C@@H](Cc1cccc2ccccc12)C(N)=O)N(C)C(=O)[C@H](Cc1c[nH]c2ccccc12)NC(=O)CNC(=O)[C@H](Cc1ccc(O)cc1)NC(=O)[C@H](C)NC(=O)[C@@H](CCC(=O)O)NC(=O)CN1CCN(CC(=O)O)CCN(CC(=O)O)CCN(CC(=O)O)CC1` [[^natLu]Lu-DOTA-MGS5, DOTA-D-Glu-Ala-Tyr-Gly-Trp-(N-Me)Nle-Asp-1-Nal-NH2, metal not drawn, reference compound], the IC50 (CCK-2R; [3]) was 5.2 ± 0.8 nM and the logD7.4 [1] was “− 2.21 ± 0.08”.

In the case of `CCCC[C@@H](C(=O)N[C@@H](CC(=O)O)C(=O)N[C@@H](Cc1cccc2ccccc12)C(N)=O)N(C)C(=O)[C@H](Cc1c[nH]c2ccccc12)NC(=O)CNC(=O)[C@H](Cc1ccc(O)cc1)NC(=O)[C@H](C)NC(=O)CNC(=O)CN1CCN(CC(=O)O)CCN(CC(=O)O)CCN(CC(=O)O)CC1` [[^nat/177Lu]Lu-DOTA-CCK-59, metal not drawn] ({DOTA}-GAYGW[NMeNle]D[1Nal]-NH2), the logD [1] is reported as -1.26 ± 0.08 and the logD7.4 [1] is reported as “− 1.9 to − 1.2”.

For `CCCC[C@H](NC(=O)[C@@H](N)Cc1c[nH]c2ccccc12)C(=O)N[C@@H](CC(=O)O)C(=O)N[C@@H](Cc1ccccc1)C(N)=O` [B2, H-Trp-Nle-Asp-Phe-NH2] (H-W[Nle]DF-NH2), the IC50 (CCK-2R; [2]) was 466 ± 88 nM, the “CCK-2R affinity (in words)” value (CCK-2R) was “significant loss in CCK-2R affinity” and the “CCK-2R affinity (in words)” value (CCK-2R; listed as H-Trp-Nle-Asp-Phe-NH2) was “noticeably decreased CCK-2R affinity”.

In the case of `CCCC[C@@H](C(=O)N[C@@H](CC(=O)O)C(=O)N[C@@H](Cc1ccc(O)cc1)C(N)=O)N(C)C(=O)[C@@H](N)Cc1c[nH]c2ccccc12` [B6, H-Trp-(N-Me)Nle-Asp-Tyr-NH2] (H-W[NMeNle]DY-NH2), the “CCK-2R affinity (in words)” value (CCK-2R) is reported as “CCK-2R affinities in the low nanomolar range”.

With `CCCC[C@@H](C(=O)N[C@@H](CC(=O)O)C(=O)N[C@@H](Cc1ccc2ccccc2c1)C(N)=O)N(C)C(=O)[C@@H](N)Cc1c[nH]c2ccccc12` [B5, H-Trp-(N-Me)Nle-Asp-2-Nal-NH2] (H-W[NMeNle]D[2Nal]-NH2) the “fold elevated IC50 value versus N-methylated tetrapeptides” value (CCK-2R) was 3.5- to 19 fold.

For `CCCC[C@@H](C(=O)N[C@@H](CC(=O)O)C(=O)N[C@@H](Cc1cccc2ccccc12)C(N)=O)N(C)C(=O)[C@@H](N)Cc1c[nH]c2ccccc12` [B3, H-Trp-(N-Me)Nle-Asp-1-Nal-NH2] (H-W[NMeNle]D[1Nal]-NH2), the “CCK-2R affinity (in words)” value (CCK-2R) was “CCK-2R affinities in the low nanomolar range”.
